In a melting point compilation (Tetko et al.; mined from patent text by program, amines drawn as free bases though some values may be those of a salt):

Compared with N#Cc1c(Nc2ccccc2)cccc1Oc1ccccc1, O=C(O)Cn1c(Cc2ccccc2)ccc(NC(=O)CCc2ccccc2)c1=O is higher in melting point: 146 to 147 °C for the first, 214 to 216 °C for the second.

First: C#Cc1ncn2c1CN(C)C(=O)c1ccccc1-2
Second: O=C1c2ccccc2NC(=S)C2CCCN12 (stereo not drawn)
The melting point of the first is lower: 191 to 193 °C for the first, 268 to 270 °C for the second.

Compared with COCCCn1nnnc1-c1cc(-c2cccc(C(=O)OC)c2)c(OCc2ccccc2)cc1OCc1ccccc1, COC(=O)C1=C(c2ccc3c(c2)OCO3)c2ccc(OCc3ccccc3)cc2C1=O is higher in melting point: 105 to 108 °C for the first, 140 to 141 °C for the second.

First: O=C(NCCCCCCCCCCCC(=O)OCC12CC3CC(CC(C3)C1)C2)NC12CC3CC(CC(C3)C1)C2
Second: O=C1c2ccccc2-c2c1c1ccccc1c(=O)n2CCCCCCCCCCCNS(=O)(=O)c1ccccc1
The melting point of the first is lower: 68 °C for the first, 170 to 172 °C for the second.

First: CCCCCCCCCCc1ccc(C(=O)c2cc(Br)c(C(=O)c3ccc(CCCCCCCCCC)cc3)cc2Br)cc1
Second: CCN(CC)CCN(CC)C(=O)c1ccc(Nc2ccnc3cc(Cl)ccc23)cc1
The melting point of the first is lower: 128 to 129 °C for the first, 166 °C for the second.

Compared with C/C(=C\CNc1ncnc2nc(N(C)C)[nH]c12)CO, CCc1cccc2c3c([nH]c12)C(CC)(CC(=O)OC)OCC3O (stereo not drawn) is lower in melting point: 245 to 249 °C for the first, 117 to 118 °C for the second.

First: CCc1cc(C(C)=O)c(O)cc1OCCCCCC(C)(C)C(N)=O
Second: CC(C)NCCCCCOc1ccc(O)cc1
The melting point of the first is lower: 73 to 74 °C for the first, 95 to 99 °C for the second.

First: Oc1ccc(-c2c3ccccc3c(C(F)(F)F)c3sc4ccccc4c23)cc1
Second: CCOC(=O)Nc1nc(-c2ccccc2)c(-c2nc3ccccc3c(=O)n2-c2ccc(Cl)cc2)s1
The melting point of the first is lower: 210 to 211 °C for the first, greater than 275 °C for the second.

Compared with O=C(c1cccc(NC(=O)c2ccn3c2CSC3c2cccnc2)c1)c1ccccn1 (stereo not drawn), CC(=O)Nc1ccc(COc2cccc(C(N)=O)c2)cc1 is higher in melting point: 165 °C for the first, 198 to 199 °C for the second.

First: COc1cccc2oc(-c3ccc(C(F)(F)F)cc3)cc(=O)c12
Second: COc1ccc(C(=O)C2=C(O)C(=O)N(c3nnc(C)s3)C2c2ccc(OC(F)(F)F)cc2)cc1 (stereo not drawn)
The melting point of the first is lower: 190 to 191 °C for the first, 245 to 247 °C for the second.

First: O=CC1=C(c2ccc3sccc3c2)N2CCN=C2S1
Second: CCOC(=O)c1nn(-c2ccc(Cl)cc2Cl)c(-c2cccs2)c1C
The melting point of the first is higher: 146 °C for the first, 121 to 122 °C for the second.

First: C#CCN(C(=O)OC)C1CN(C(=O)Nc2ccc(OC(F)(F)F)cc2)N=C1c1ccc(Cl)cc1 (stereo not drawn)
Second: CC(Oc1ccc(Oc2cnc3cc(Cl)ccc3n2)cc1)C(=O)Nc1ccc(OC(F)(F)F)cc1 (stereo not drawn)
The melting point of the first is higher: 184 to 185 °C for the first, 156 to 158 °C for the second.

First: CS(=O)(=O)Oc1ccc(-n2nc(C#N)cc2-c2ccc(S(C)(=O)=O)cc2)cc1
Second: Nc1cc(Cl)c(Oc2ccc(S(=O)(=O)c3ccc(Cl)cc3)cc2)c(Cl)c1
The melting point of the first is higher: 195 to 196 °C for the first, 186 to 187 °C for the second.

First: Oc1ccc(C2(c3ccccc3)OCCCC2c2ccccc2)cc1 (stereo not drawn)
Second: CCOC(=O)C1=C(Nc2ccccc2)CN(C(=O)c2ccccc2)C1
The melting point of the first is higher: 194 to 196 °C for the first, 149 to 151 °C for the second.

First: CC(C)c1ccc(NC(=O)C2CCCc3ccccc32)cn1 (stereo not drawn)
Second: CC(C)(COc1ccc(CC2SC(=O)NC2=O)cc1)c1ccccc1 (stereo not drawn)
The melting point of the first is higher: 156 °C for the first, 107 to 108 °C for the second.

Compared with Cc1ncn(C)c1CO, Cn1c(=O)oc2cc(CCO)cnc21 is higher in melting point: 125 to 127 °C for the first, 142 to 144 °C for the second.

Compared with CC(F)(F)C1(O)c2cc(Cl)ccc2Nc2ncccc21 (stereo not drawn), O=C(O)c1ccc(S(=O)(=O)Nc2ccc(F)c(C(F)(F)F)c2)cc1 is higher in melting point: 188 to 190 °C for the first, 238 to 241 °C for the second.

Compared with O=C1NC(=O)C(=Cc2ccc(C(=O)CCc3ccccc3)cn2)S1, N#Cc1cccc(CCn2ncc3c(=O)n(-c4ccccc4)c4ncccc4c32)c1 is lower in melting point: greater than 250 °C for the first, 220 to 224 °C for the second.

First: COn1c(C(F)(F)F)nc2ncc(Cl)cc21
Second: CC(=O)Nc1ccc(OCC(F)(F)F)cc1
The melting point of the first is lower: 91 to 92 °C for the first, 140 to 141 °C for the second.

First: Cc1ccc2c(c1)C1=NNC(=O)CC1CS2 (stereo not drawn)
Second: Cc1nc2n(c(=O)c1CCN1CCC(c3n[nH]c4cc(F)ccc34)CC1)CCS2
The melting point of the first is higher: 217 to 219 °C for the first, 208 °C for the second.

Compared with Cn1ccnc1Sc1ccc(I)cc1Cl, Cn1cc(S(C)=O)c(=O)c2ccc(Cl)cc21 (stereo not drawn) is higher in melting point: 99 to 101 °C for the first, 245 to 247 °C for the second.

First: Nc1nc(Cl)cc(NC(CO)C2C=CCC2)n1 (stereo not drawn)
Second: CCc1cccc(C(=O)c2nc(OC)cc(OC)n2)c1N
The melting point of the first is higher: 201 to 203 °C for the first, 122 to 123 °C for the second.

First: Cc1c(C)c2c(c(C)c1O)CCC(C)(C)O2
Second: CC1(C)CCC(C)(C)c2cc3oc(-c4ccc(CO)cc4)nc3cc21
The melting point of the first is lower: 85 to 88 °C for the first, 200 °C for the second.

First: CC1=CC=C[C@@H](O)[C@H]1O
Second: Cc1nn(C)c(=O)n1-c1ccc(N)cc1
The melting point of the first is lower: 56 to 57 °C for the first, 160 °C for the second.

First: CCOC(=NC(=O)c1ccncc1)N1Cc2ccccc2-c2ccccc2C1
Second: CCCN(Cc1ccc(-c2ccccc2-c2nc(=O)s[nH]2)cc1)c1nc(C)ncc1C(=O)OCC
The melting point of the first is lower: 120 to 122 °C for the first, 173 to 175 °C for the second.

First: O=C(O)Cc1c[nH]c2cc(C(F)(F)F)nn2c1=O
Second: Cc1cc(-c2cc(C(F)(F)F)nc(-n3cnc(-c4ccc(S(N)(=O)=O)s4)c3)n2)ccc1C(F)(F)F
The melting point of the first is higher: 320 to 324 °C for the first, 260 °C for the second.

Compared with CCCS(=O)(=O)Nc1cccc(C)c1C(N)c1cccn2c(C)c(C)nc12 (stereo not drawn), Cc1cc(C)nc(NC(=O)NS(=O)(=O)c2ccsc2C2=CC(=O)CCC2)n1 is lower in melting point: 245 to 248 °C for the first, 190 to 192 °C for the second.

Compared with O=C1c2c(ccc(F)c2Cl)-n2cnc(-c3cccc(Cl)c3)c2[C@@H]2CCCN12, CCC1(Cl)C(=O)c2c(cc(OCC(=O)O)c(Cl)c2Cl)C1c1ccccc1 (stereo not drawn) is lower in melting point: 238 to 239 °C for the first, 190 to 192 °C for the second.

First: COc1ccc(CCNc2nc(O)c(C(=O)c3ccco3)c(O)n2)cc1OC
Second: COc1ccc(Nc2nc(Nc3cc4c(cc3OC)CNC(CC3CC3)C(=O)N4C)ncc2Cl)c(-n2cccn2)c1 (stereo not drawn)
The melting point of the first is higher: greater than 250 °C for the first, 94 to 96 °C for the second.

First: COC1C(O)C(CO)OC1n1ccc(=O)[nH]c1=O (stereo not drawn)
Second: COC(=O)NC(CCc1ccc(Cl)cc1)C(=O)O (stereo not drawn)
The melting point of the first is higher: 158 to 159 °C for the first, 113 to 114 °C for the second.

First: CCN(C(=O)C1(C(=O)O)CC1)c1ccc(Cl)cc1
Second: CC1(C)CCCC(C)(C)N1OCc1ccccc1C(=O)ON1C(=O)CCC1=O
The melting point of the first is lower: 99 to 101 °C for the first, 145 °C for the second.

First: O=C(NC1CCCCCCC1)NC1CCCCC1
Second: COC(=O)c1cc2ccsc2s1
The melting point of the first is higher: 194 °C for the first, 101 to 105 °C for the second.

Compared with CC(Oc1ccc(COc2ccc(Cl)cc2)cc1)C(=O)OCCOc1cc(Cl)c(Cl)cc1Cl (stereo not drawn), O=Cc1ccc(Oc2ccc(F)cc2)cc1 is lower in melting point: 83 °C for the first, 69 to 73 °C for the second.

Compared with CC#CCOc1ccc(S(=O)(=O)NC(COCCBr)C(=O)OC)cc1 (stereo not drawn), CC(C)(C)[C@H](NC(=O)[C@@H](CC(=O)OCc1ccccc1)n1ccc(-c2ccc(-c3ccc(C#N)cc3)cc2)c1)C(=O)Nc1ccncc1 is higher in melting point: 45 to 46 °C for the first, 115 to 116 °C for the second.

First: CC(C)(C)OC(=O)N1[C@H](C=CCCCO)COC1(C)C
Second: CC=C(Oc1nc(OC)cc(OC)n1)C(=O)OC
The melting point of the first is higher: 73 to 75 °C for the first, 71 °C for the second.

Compared with N#Cc1ccc(Cc2cccnc2)cc1, O=[N+]([O-])c1ccc(-n2nnnc2-c2ccccc2Br)cc1 is higher in melting point: 155 to 157 °C for the first, 169 to 170 °C for the second.

For COc1cc(OC)c(C(O)C(Cl)(Cl)Cl)cc1OC (stereo not drawn), the melting point was 162 to 164 °C.
